Data taken from ChEMBL document CHEMBL1201862, “PubChem BioAssay data set” (2004).
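Values below derive from 48-hour exposures of cells grown in 96-well plates, with endpoints linearly interpolated between the two concentrations bracketing the appropriate inhibition level. GI50 is the concentration that inhibits growth by half.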 Calls of active or inactive are those of the source. Cut-off read from the data, not from the text of the source: active = GI50 up to about 1.1 µM and inactive = higher.

What was measured:
Test in all cases: NCI tumour cell line growth inhibition, 48 h
DLD-1 = test system: DLD-1
DMS-273 = test system: DMS-273
EKVX = test system: EKVX
HCT-116 = test system: HCT-116
M19-MEL = test system: M19-MEL
NCI-H23 = test system: NCI-H23
OVCAR-4 = test system: OVCAR-4
RPMI-8226 = test system: RPMI-8226
RXF 393 = test system: RXF 393
SN12C = test system: SN12C
SR = test system: SR
SW-620 = test system: SW-620
UACC-257 = test system: UACC-257

Measured: GI50

O=C1Nc2c(ccc(Cl)c2I)C1=O
inactive: DLD-1 18.5 µM | DMS-273 17 µM | EKVX 16.4 µM | HCT-116 19.1 µM | M19-MEL 11.4 µM | NCI-H23 14.6 µM | OVCAR-4 16.9 µM | RPMI-8226 15.5 µM | RXF 393 17.4 µM | SN12C 17.1 µM | SR 18.8 µM | SW-620 18.7 µM | UACC-257 > 10 µM

O=C1C=C(c2[nH]c3ccccc3c2C2=CC(=O)c3ccccc3C2=O)C(=O)c2ccccc21
inactive: DLD-1 57.1 µM | DMS-273 39.2 µM | EKVX 46.5 µM | M19-MEL 17.3 µM | NCI-H23 41.3 µM | OVCAR-4 33.7 µM | RPMI-8226 33 µM | RXF 393 39.7 µM | SR 20.6 µM | SW-620 66.5 µM

Cc1ccc(Cl)c2c(=O)cc(-c3ccccc3)[nH]c12
inactive: DLD-1 > 100 µM | DMS-273 35.6 µM | HCT-116 58.5 µM | M19-MEL 68.7 µM | NCI-H23 59.7 µM | OVCAR-4 55.3 µM | RPMI-8226 40.8 µM | RXF 393 29.2 µM | SN12C 56.4 µM | SR 25.1 µM | SW-620 67.5 µM | UACC-257 58.1 µM

O=C(c1cccs1)N(C(=S)N1CCN(c2ccccn2)CC1)c1ccccc1
inactive: DLD-1 > 100 µM | DMS-273 82.8 µM | HCT-116 56.2 µM | M19-MEL 81.1 µM | NCI-H23 > 100 µM | OVCAR-4 > 100 µM | RPMI-8226 > 100 µM | RXF 393 35 µM | SN12C > 100 µM | SR > 100 µM | SW-620 > 100 µM | UACC-257 83.2 µM

O=C1C(Cl)=C(NCCOCCO)C(=O)c2c(O)ccc(O)c21
inactive: DLD-1 2.13 µM | DMS-273 3.89 µM | HCT-116 2.86 µM | M19-MEL 1.81 µM | NCI-H23 1.88 µM | OVCAR-4 2.37 µM | RPMI-8226 3.1 µM | RXF 393 14.1 µM | SN12C 11 µM | SR 6.53 µM | SW-620 3.55 µM | UACC-257 2.97 µM

O=C(c1nc2ccc(Cl)cc2[nH]c1=O)C(O)c1cccc([N+](=O)[O-])c1 (stereo unspecified)
inactive: DLD-1 > 100 µM | DMS-273 > 100 µM | EKVX > 100 µM | HCT-116 > 100 µM | M19-MEL > 100 µM | NCI-H23 > 100 µM | OVCAR-4 > 100 µM | RPMI-8226 9.66 µM | RXF 393 > 100 µM | SN12C > 100 µM | SR 85.7 µM | UACC-257 > 100 µM
